Reference: patent US6218384A, “3-Oxo-pyrido(1,2-a)benzimidazole-4-carboxyl and 4-oxo-azepino(1,2-a)benzimidazole-5-carboxyl derivatives useful in treating central nervous system disorders” (Ortho-McNeil Pharmaceutical, Inc., priority 1997, dated 2001)
Where two headings read alike, the source gives them in different places.

What was measured:
[1] = Suppression of anxiety (punished licking, conflict test) in the adult male rat; format: in vivo, male rats
Procedure: The anxiolytic activity of selected compounds of the invention was assessed by determining their ability to release (disinhibit) behavior that had been suppressed by punishment (Vogel, J. R. et al. Psychopharmacology 1971, 21, 1). Male rats were deprived of water for 48 hours and were deprived of food for 24 hours prior to testing. After the first 24 hours of water deprivation, they were placed in the conflict chamber for a training period; wherein, they were allowed 200 unpunished licks from a bottle containing tap water. The experiment was run the next day. At the expected time of peak activity, the animals were placed in the chamber and allowed access to tap water. […] Their first lick initiates a 3-min test session. Subsequently,every 20th lick was punished by a 0.2-s shock delivered via the stainless-steel drinking-tube. Vehicle-treated control animals generally were willing to accept a median number of 3 to 8 shocks per test session. […] The Wilcoxon rank-sum test (Mann-WhitneyU-test) was used to test for an increase (p<0.05, 1-tailed) in the median number of shocks in drug-treated groups, compared to a concurrently run vehicle-treated group. The biological assay is considered to be valid if the effects of a known anxiolytic (positive control) are detected, within the same experiment. A compound was considered active if there is a significant difference in the median number of shocks tolerated between the drug-treated group and the control group. The MED was defined as the minimum dose of the drug-treatment as analyzed using the Wilcoxon rank-sum test (SAS; Statistical Analysis System, version 5.16). If the MED value is greater than 10, an active dose of the compound being tested had not been determined.

[2] = Suppression of metrazol-induced convulsions; format: in vivo, male CD1 mice; settings: mice; for Metrazol (ip) ED50: 30 min; for ED50: Mus musculus, 0.5 h
Procedure: Selected compounds of the invention were tested for their ability to reduce metrazol-induced convulsions in mice (Swinyard, E. A. J. Am. Pharm Assoc. 1949, 38, 201). Male CD1 mice, were fasted at least 16 hours, were divided into equal groups and test compounds or vehicle were administered parenterally. Water was not withheld except during the period of observations. At the time of suspected peak activity, anti-pentylenetetrazol (anti-metrazol) activity was evaluated by the subcutaneous administration of the CD90 dose of metrazol (the dose of metrazol was determined from the dose-response curve producing clonic convulsions in 90% of animals that received the corresponding vehicle for this experiment). Metrazol was dissolved in 0.9% sodium chloride solution, and its dose volume was 10 ml/kg. Animals were housed individually for observation of clonic convulsions, tonic convulsions and death for a period of 30 min. Test compounds that blocked the clonic seizure component of the convulsion in at least 50% of the animals were considered active. The biological assay was considered to be valid if the effects of a known anticonvulsant (positive control) were detected, within the same experiment. Activity was reported as percent reduction of clonic convulsions from the vehicle group. The ED50 values of active compounds were calculated by the method of probits (Finney, D. J. 1971. Probit Analysis. London: Cambridge University Press) and are listed in Tables 1 to 5.

[3] = molecular target: benzodiazepine site of the GABA-A receptor; assay: Benzodiazepine Receptor Binding Assay (inhibition of 3H-flunitrazepam binding); settings: ca. 3 nM 3H-flunitrazepam
[4] = Table 1, ip, minimum effective dose, >10 = active dose not determined
[5] = Table 1, ip, clonic convulsions after sc CD90 metrazol, >30 = active dose not determined
[6] = Table 1, 25° C., 10-20 min, >10,000 = not active
[7] = Table 1, ip, minimum effective dose, >10 = active dose not determined, read-out: Conflict (ip) MED
[8] = Table 1, ip, clonic convulsions after sc CD90 metrazol, >30 = active dose not determined, read-out: Metrazol (ip) ED50

| Molecule | IC50 [3, 6] [µM] | minimal effective dose [1, 7] [mg/kg] | ED50 [2, 8] [mg/kg] | also measured |
| --- | --- | --- | --- | --- |
| 1,2-Dihydro-3-hydroxy-N-phenylpyrido(1,2-a)benzimidazole-4-thiocarboxamide [CP 117] | 0.046 | – | – | Conflict (ip) MED [1, 4]: 10 mg/kg; Metrazol (ip) ED50 [2, 5]: > 30 mg/kg |
| 1,2-Dihydro-5-ethyl-3-oxo-N-(2-fluorophenyl)-pyrido(1,2-a)benzimidazole-4-carboxamide [CP 123] | 0.62 | – | – | Conflict (ip) MED [1, 4]: 1 mg/kg; Metrazol (ip) ED50 [2, 5]: 5 mg/kg |
| O=C1CCN2C(=C1C(=O)NCCc1ccccc1)Nc1ccccc12 [compound 2] | 0.28 | > 10 | 10 to 30 | – |
| O=C1CCN2C(=C1C(=O)Nc1cccc(Cl)c1)Nc1ccccc12 [compound 6] | 0.12 | > 10 | > 30 | – |
| COc1ccc(NC(=O)C2=C3Nc4ccccc4N3CCC2=O)cc1OC [compound 8] | 0.032 | > 10 | > 30 | – |
| COc1ccc2c(c1)NC1=C(C(=O)Nc3ccccc3)C(=O)CCN12 [compound 12] | 0.04 | > 10 | 3 | – |
| O=C1CCN2C(=C1C(=O)Nc1c(Cl)cccc1Cl)Nc1ccccc12 [compound 14] | 0.32 | > 10 | 30 | – |
| O=C1CCN2C(=C1C(=O)Nc1cccc(C(F)(F)F)c1)Nc1ccccc12 [compound 15] | 0.3 | > 10 | > 10 | – |
| O=C1CCN2C(=C1C(=O)Nc1ccccc1)Nc1cc(C(F)(F)F)ccc12 [compound 16] | 0.96 | – | – | – |
| Nc1ccc(NC(=O)C2=C3Nc4ccccc4N3CCC2=O)cc1 [compound 18] | 13 | > 10 | 3 | – |
| O=C1CCN2C(=C1C(=O)Nc1ccccc1F)Nc1ccccc12 [compound 20] | 0.0017 | 1 | 0.1 | – |
| COc1cccc(NC(=O)C2=C3Nc4ccccc4N3CCC2=O)c1 [compound 21] | 0.026 | 5 | 0.3 | – |
| O=C1CCN2C(=C1C(=O)Nc1ccccn1)Nc1ccccc12 [compound 22] | 0.059 | 10 | 10 | – |
| CSc1ccc(NC(=O)C2=C3Nc4ccccc4N3CCC2=O)cc1 [compound 23] | 0.4 | > 10 | 10 | – |
| CN(C)c1ccc(NC(=O)C2=C3Nc4ccccc4N3CCC2=O)cc1 [compound 24] | 0.27 | 3 | 3 | – |
| O=C1CCN2C(=C1C(=O)Nc1ccccc1Cl)Nc1ccccc12 [compound 25] | 0.012 | 10 | 1 | – |
| COc1ccccc1NC(=O)C1=C2Nc3ccccc3N2CCC1=O [compound 26] | 0.99 | > 10 | > 10 | – |
| CCOC(=O)c1ccc(NC(=O)C2=C3Nc4ccccc4N3CCC2=O)cc1 [compound 27] | > 10 | < 10 | > 30 | – |
| O=C1CCN2C(=C1C(=O)Nc1ccc(C(=O)O)cc1)Nc1ccccc12 [compound 28] | > 10 | 10 | > 30 | – |
| NC(=O)C1=C2Nc3ccccc3N2CCC1=O [compound 29] | 2.4 | 10 | > 3 | – |

| Molecule | IC50 [3, 6] [µM] | minimal effective dose [1, 7] [mg/kg] | ED50 [2, 8] [mg/kg] | also measured |
| --- | --- | --- | --- | --- |
| O=C1CCN2C(=C1C(=O)Nc1ccc3[nH]ccc3c1)Nc1ccccc12 [compound 30] | 0.53 | > 10 | > 30 | – |
| Cc1ccccc1NC(=O)C1=C2Nc3ccccc3N2CCC1=O [compound 31] | 0.23 | 10 | > 30 | – |
| O=C1CCN2C(=C1C(=O)NCc1ccccc1)Nc1ccccc12 [compound 32] | 0.038 | > 10 | > 30 | – |
| O=C1CCN2C(=C1C(=O)Nc1ccc3c(c1)CCN3)Nc1ccccc12 [compound 33] | 0.054 | 10 | > 30 | – |
| CN(C)c1cccc(NC(=O)C2=C3Nc4ccccc4N3CCC2=O)c1 [compound 34] | 0.037 | > 10 | 4 | – |
| O=C1CCN2C(=C1C(=O)Nc1ccncc1)Nc1ccccc12 [compound 35] | 0.16 | 3 | 2 | – |
| O=C1CCN2C(=C1C(=O)Nc1c(F)cccc1F)Nc1ccccc12 [compound 36] | 0.0028 | 0.1 | 1 | – |
| COc1ccc2c(c1)NC1=C(C(=O)NC3CCCCC3)C(=O)CCN12 [compound 37] | 0.8 | 10 | 10 | – |
| CCCCNC(=O)C1=C2Nc3ccccc3N2CCC1=O [compound 38] | 0.054 | > 10 | > 10 | – |
| O=C1CCN2C(=C1C(=O)Nc1ccncn1)Nc1ccccc12 [compound 39] | 0.48 | 10 | > 10 | – |
| CN(C)c1ccc(NC(=O)C2=C3Nc4ccccc4N3CCC2=O)c(F)c1 [compound 86] | 0.12 | – | 1 | – |
| O=C1CCN2C(=C1C(=O)Nc1c(Cl)cc(Cl)cc1Cl)Nc1ccccc12 [compound 101] | – | > 10 | > 10 | – |
| O=C1CCN2C(=C1C(=O)Nc1ccncc1F)Nc1cc(F)ccc12 [compound 110] | 0.012 | – | – | – |
| O=C1CCN2C(=C1C(=O)Nc1ccc(F)cc1F)Nc1cc(F)ccc12 [compound 111] | 0.0033 | – | – | – |
| O=C1CCN2C(=C1C(=O)Nc1c(Cl)cccc1Cl)Nc1cc(F)ccc12 [compound 112] | 0.1 | – | – | – |
| O=C1CCN2C(=C1C(=O)Nc1cccnc1F)Nc1ccccc12 [compound 116] | – | > 10 | 2 | – |
| O=C1CCN2C(=C1C(=O)Oc1ccccc1)Nc1ccccc12 [compound 118] | – | – | – | ED50 ([2]; Table 2, ip, clonic convulsions, read-out: Antimetrazol (ip) ED50): 3 mg/kg; IC50 ([3]; Table 2): 0.2 µM |
| CC1CN2C(=C(C(=O)Nc3ccccc3F)C1=O)N(C)c1ccccc12 (stereo not shown) [compound 132] | – | – | – | minimal effective dose ([1]; Table 3, minimum effective dose, read-out: Conflict MED): < 10 mg/kg; ED50 ([2]; Table 3, parenteral, clonic convulsions, read-out: Antimetrazol ED50): 1 mg/kg |
| O=C1CCCN2C(=C1C(=O)Nc1ccncc1)N(Cc1ccccc1)c1ccccc12 [compound 154] | – | – | – | ED50 ([2]; Table 5, parenteral, clonic convulsions, read-out: Antimetrazol ED50): > 10 mg/kg; IC50 ([3]; Table 5): 6.7 µM |
